Data: article PMC8069214, “Synthesis, Biological Evaluation, and Molecular Modeling of Aza-Crown Ethers” (Molecules, 2021)
Structures can show the parent of a compound that is named as a salt. Where two headings read alike, the source gives them in different places.

How the values were obtained:
human neutrophils [1] = assay: Ca2+ mobilization assay, direct effect of compounds on [Ca2+]i; format: cell-based; details: Neutrophil; for Emax: % of the response induced by 5 nM fMLF, read-out: Efficacy (converted)
Text: We screened 24 aza- and diaza-crown ethers with adamantyl, adamantylalkyl, aminomethylbenzoyl, and ε-aminocaproyl substituents for their Ca^2+ ionophore effects in human neutrophils. To monitor cytoplasmic Ca^2+ levels, we used the fluorescent Ca^2+ indicator Fluo-4, which is a dynamic single-wavelength fluorescent Ca^2+ indicator. Increases in fluorescence intensity (λex = 485 nm, λem = 538 nm) reflect the rise in cytoplasmic Ca^2+ concentrations ([Ca^2+]i; see Materials and Methods).
(§1) Changes in neutrophil intracellular Ca^2+ concentrations ([Ca^2+]i) were measured with a FlexStation 3 scanning fluorometer (Molecular Devices, Sunnyvale, CA, USA). Briefly, human neutrophils were suspended in HBSS^−, loaded with Fluo-4AM at a final concentration of 1.25 μg/mL, and incubated for 30 min in the dark at 37 °C. After dye loading, the cells were washed with HBSS^−, resuspended in HBSS^+, separated into aliquots, and loaded into the wells of flat-bottom, half-area well black microtiter plates (2 × 10^5 cells/well). To assess the direct effects of test compounds on Ca^2+ flux, the compounds were added to the wells (final concentration of DMSO was 1%), and changes in fluorescence were monitored (λex = 485 nm, λem = 538 nm) every 5 s for 240 s at room temperature after addition of the test compound. To evaluate inhibitory effects of the compounds on FPR1/FPR2-dependent Ca^2+ flux, the compounds were added to the wells (final concentration of DMSO was 1%) with cells (human neutrophils or FPR1/FPR2 HL60 cells). The samples were preincubated for 10 min, followed by addition of 5 nM fMLF (for human neutrophils or FPR1-HL60 cells) or 5 nM WKYMVM (for FPR2-HL60 cells). The maximum change in fluorescence, expressed in arbitrary units over baseline, was used to determine the agonist response. Responses were normalized to the response induced by 5 nM fMLF or 5 nM WKYMVM, which were assigned as 100%. Curve fitting (at least five or six points) and calculation of median effective concentration values (EC50 or IC50) were performed by nonlinear regression analysis of the dose–response curves generated using Prism 7 (GraphPad Software, Inc., San Diego, CA, USA). Efficacy was determined by comparing individual responses activated by the test compounds to that induced by a positive control (5 nM fMLF), which was assigned a value of 100%.

human neutrophils [2] = assay: Inhibition of fMLF-induced [Ca2+]i flux in human neutrophils; format: cell-based; details: Neutrophil, 10 min preincubation, 5 nM fMLF, N.A. = no activity at < 50 µM, read-out: FPR1/FPR2 Agonist-Induced Δ[Ca^2+]i Neutrophils IC50
Procedure: (§2) Since these compounds elevated neutrophil [Ca^2+]i, and cytosolic Ca^2+ flux is a key component of neutrophil activation, we evaluated if they could alter neutrophil activation by FPR1 or FPR2 agonists. Neutrophils and FPR-transfected HL60 cells were preincubated for 10 min with crown ether compounds, and [Ca^2+]i flux was stimulated with either an FPR1 agonist (fMLF for human neutrophils and FPR1-HL60 cells) or an FPR2 agonist (WKYMVM for FPR2-HL60 cells).
as §1

FPR1 = molecular target: T1, FPR1 (Homo sapiens, UniProt P21462); assay: Inhibition of fMLF-induced [Ca2+]i flux in FPR1-HL60 cells; format: cell-based; details: 10 min preincubation, 5 nM fMLF; N.A. = no activity at < 50 µM; read-out: FPR1/FPR2 Agonist-Induced Δ[Ca^2+]i FPR1-HL60 IC50
T1 construct: expressed in transfected cells
T1 sequence (P21462 1-350): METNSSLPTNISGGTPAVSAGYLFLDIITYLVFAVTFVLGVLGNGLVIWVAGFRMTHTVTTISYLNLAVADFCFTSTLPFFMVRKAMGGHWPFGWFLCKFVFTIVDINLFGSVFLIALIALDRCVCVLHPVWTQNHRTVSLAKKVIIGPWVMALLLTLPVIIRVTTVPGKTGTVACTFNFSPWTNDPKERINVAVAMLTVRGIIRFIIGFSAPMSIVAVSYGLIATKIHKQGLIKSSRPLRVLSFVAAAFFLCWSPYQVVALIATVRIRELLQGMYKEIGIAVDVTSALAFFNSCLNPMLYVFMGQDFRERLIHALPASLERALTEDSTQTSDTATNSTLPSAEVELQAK
Procedure: as §2
(§3) Human promyelocytic leukemia HL60 cells stably transfected with FPR1 (FPR1-HL60 cells) or FPR2 (FPR2-HL60 cells) (kind gifts from Dr. Marie-Josephe Rabiet, INSERM, Grenoble, France) were cultured in RPMI 1640 medium supplemented with 10% heat-inactivated fetal calf serum, 10 mM HEPES, 100 μg/mL streptomycin, 100 U/mL penicillin, and G418 (1 mg/mL). Although stable cell lines are cultured under G418 selection pressure, G418 may affect some assays, so it was removed in the last round of culture before assays were performed.
as §1

human neutrophils [3] = assay: fMLF-induced neutrophil chemotaxis (ChemoTx chambers); format: cell-based; details: 1 h, 1 nM fMLF, 60 min migration
Procedure: Human neutrophils were suspended in HBSS^+ containing 2% (v/v) heat-inactivated fetal bovine serum (2 × 10^6 cells/mL), and effects of the compounds on fMLF-induced chemotaxis was analyzed in 96-well ChemoTx chemotaxis chambers (Neuroprobe, Gaithersburg, MD, USA). In brief, neutrophils were preincubated with the indicated concentrations of the test compounds or DMSO for 20 min at room temperature and added to the upper wells of the ChemoTx chemotaxis chambers. The lower wells were loaded with 30 µL of HBSS^+ containing 2% (v/v) fetal bovine serum and the indicated concentrations of test sample plus 1 nM fMLF, DMSO (negative control), or 1 nM fMLF as a positive control. Neutrophils were added to the upper wells and allowed to migrate through the 5.0-µm pore polycarbonate membrane filter for 60 min at 37 °C and 5% CO2. The number of migrated cells was determined by measuring ATP in lysates of transmigrated cells using a luminescence-based assay (CellTiter-Glo; Promega, Madison, WI, USA), and luminescence measurements were converted to absolute cell numbers by comparison of the values with standard curves obtained with known numbers of neutrophils. Curve fitting (at least eight to nine points) and calculation of median effective concentration values (IC50) were performed by nonlinear regression analysis of the dose-response curves generated using Prism 5.

FPR2 = molecular target: T2, FPR2 (Homo sapiens, UniProt P25090); assay: Inhibition of WKYMVM-induced [Ca2+]i flux in FPR2-HL60 cells; format: cell-based; details: 10 min preincubation, 5 nM WKYMVM; N.A. = no activity at < 50 µM; read-out: FPR1/FPR2 Agonist-Induced Δ[Ca^2+]i FPR2-HL60 IC50
T2 construct: expressed in transfected cells
T2 sequence (P25090 1-351): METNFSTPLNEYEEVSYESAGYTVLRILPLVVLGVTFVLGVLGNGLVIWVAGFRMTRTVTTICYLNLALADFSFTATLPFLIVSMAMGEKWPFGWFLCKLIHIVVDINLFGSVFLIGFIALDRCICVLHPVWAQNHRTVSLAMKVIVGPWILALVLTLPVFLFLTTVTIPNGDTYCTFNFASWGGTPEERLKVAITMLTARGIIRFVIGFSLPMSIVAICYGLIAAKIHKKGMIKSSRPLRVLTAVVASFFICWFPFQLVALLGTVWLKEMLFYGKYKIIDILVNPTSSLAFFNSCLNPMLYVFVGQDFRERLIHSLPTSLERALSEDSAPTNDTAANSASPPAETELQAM
Procedure: as §2, §3, §1

human neutrophils [4] = assay: PMA-induced ROS production (L-012 chemiluminescence); format: cell-based; details: Neutrophil, 200 nM PMA, N.A. = no activity at < 50 µM
Text: To evaluate if the crown ethers could also disrupt GPCR-independent functional activity, we evaluated the effects of these compounds on phorbol 12-myristate 13-acetate (PMA)-stimulated reactive oxygen species (ROS) production. […] A representative concentration-dependent response for the inhibition of PMA-stimulated neutrophil ROS production by compound 15 is shown in Figure 2B. Since ROS production in neutrophils also requires increased [Ca^2+]i, the results again confirm that the impact of these compounds on Ca^2+ flux kinetics can alter neutrophil function.
ROS production was determined by monitoring L-012-enhanced chemiluminescence, which represents a sensitive and reliable method for detecting superoxide anion (O2^−.) production. Human neutrophils were resuspended at 2 × 10^5 cells/mL in HBSS^+ supplemented with 40 µM L-012. Cells (100 µL) were aliquoted into wells of 96-well flat-bottomed microtiter plates containing test compounds at different concentrations (final DMSO concentration of 1%). Cells were preincubated for 10 min, and 200 nM PMA was added to each well to stimulate ROS production. Luminescence was monitored for 120 min (2-min intervals) at 37 °C using a Fluroscan Ascent FL microtiter plate reader (Thermo Electron, Waltham, MA, USA). The curve of light intensity (in relative luminescence units) was plotted against time, and the area under the curve was calculated as total luminescence. The compound concentration that inhibited ROS production by 50% of the PMA-induced response (positive control) was determined by graphing the percentage inhibition of ROS production versus the logarithm of concentration of test sample (IC50). Each curve was determined using five to seven concentrations.

[5] = Homo sapiens, elevation of [Ca2+]i, Fluo-4, N.A. = no activity was found at concentration < 50 µM, read-out: EC50, effect on [Ca^2+]i flux in human neutrophils
[6] = reciprocal of EC50 in human neutrophils, inactive compounds assigned zero, read-out: 1/[EC50] (converted)

Row | SMILES | melting point | EC50 (human neutrophils [1]; [5]) | EC50 (human neutrophils [1]; [6]) | IC50 (human neutrophils [2]) | IC50 (FPR1) | IC50 (human neutrophils [3]) | IC50 (FPR2) | IC50 (human neutrophils [4]) | Emax (human neutrophils [1]; Homo sapiens)
1 | NCCCCCC(=O)N1CCOCCOCCN(C(=O)CCCCCN)CCOCC1 (as salt: hydrochloride) [Compound 22, N,N’-bis(6-aminohexanoyl)-4,10-diaza-15-crown-5 dihydrochloride] | 114 to 118 °C | – | – | – | – | – | – | – | –
2 | O=C(CC12CC3CC(CC(C3)C1)C2)NC12CC3CC(CC(C3)C1)C2 [Compound 3, N,2-di(1-adamantyl)acetamide] | 242 to 244 °C | – | – | – | – | – | – | – | –
3 | O=C(NC1CCCCC1)C12CC3CC(CC(C3)C1)C2 [Compound 4, N-cyclohexyladamantane-1-carboxamide] | 174 to 176 °C | – | – | – | – | – | – | – | –
4 | O=C(CC12CC3CC(CC(C3)C1)C2)N1CCOCCOCCOCCOCC1 [Compound 8, N-[2-(1-adamantyl)acetyl]aza-15-crown-5] | – | 22.4 ± 4.3 µM | 22.4 µM | 2.6 ± 0.4 µM | 37.1 ± 4.8 µM | 13.2 ± 3.8 µM | – | – | –
5 | O=C(CC12CC3CC(CC(C3)C1)C2)N1CCOCCOc2ccccc2OCCOCC1 [Compound 11, N-[2-(1-adamantyl)acetyl]benzoaza-15-crown-5] | 141 to 142 °C | 15.6 ± 4.4 µM | 15.6 µM | 9.4 ± 0.6 µM | – | 12.8 ± 5.3 µM | 29.1 ± 3.2 µM | – | 25 to 50%

The next lines start with results.

Row | melting point | EC50 (human neutrophils [1]; [5]) | EC50 (human neutrophils [1]; [6]) | IC50 (human neutrophils [2]) | IC50 (FPR1) | IC50 (human neutrophils [3]) | IC50 (FPR2) | IC50 (human neutrophils [4]) | SMILES | Emax (human neutrophils [1]; Homo sapiens)
6 | 255 to 257 °C | – | – | – | – | – | – | – | O=C(NC12CC3CC(CC(C3)C1)C2)C12CC3CC(CC(C3)C1)C2 [Compound 2, N-(1-adamantyl)adamantane-1-carboxamide] | –
7 | 111 to 113 °C | 9.7 ± 2.6 µM | 9.7 µM | 11.2 ± 2.7 µM | 12.2 ± 1.9 µM | – | 36.4 ± 5.6 µM | – | O=C(N1CCOCCOc2ccccc2OCCOCC1)C12CC3CC(CC(C3)C1)C2 [Compound 10, N-[1-Oxo-1-(1-adamantyl)methyl]benzoaza-15-crown-5] | 25 to 50%
8 | – | 23.8 ± 7.6 µM | 23.8 µM | 4 ± 1.4 µM | – | 15.7 ± 4.2 µM | – | – | O=C(N1CCOCCN(C(=O)C23CC4CC(CC(C4)C2)C3)CCOCC1)C12CC3CC(CC(C3)C1)C2 [Compound 12, N,N’-bis[1-oxo-1-(1-adamantyl)methyl]-4,10-diaza-12-crown-4] | 25 to 50%
9 | – | 15.7 ± 3.8 µM | 15.7 µM | 3.4 ± 0.8 µM | 7.3 ± 2.6 µM | 5.3 ± 0.4 µM | 30.7 ± 6.4 µM | – | O=C(N1CCOCCOCCN(C(=O)C23CC4CC(CC(C4)C2)C3)CCOCCOCC1)C12CC3CC(CC(C3)C1)C2 [Compound 16, N,N’-bis[1-oxo-1-(1-adamantyl)methyl]-4,13-diaza-18-crown-6] | 25 to 50%
10 | 74 to 78 °C | – | – | – | – | – | – | – | C1COCCN(CC23CC4CC(CC(C4)C2)C3)CCOCCN(CC23CC4CC(CC(C4)C2)C3)CCO1 [Compound 19, N,N’-bis[(1-adamantyl)methyl]-4,10-diaza-15-crown-5] | –
11 | – | 11.3 ± 3.1 µM | 11.3 µM | 10.2 ± 2.6 µM | 9.6 ± 2.1 µM | – | 28.2 ± 2.6 µM | 15.3 ± 1.8 µM | C1COCCN(CCC23CC4CC(CC(C4)C2)C3)CCOCCOCCN(CCC23CC4CC(CC(C4)C2)C3)CCO1 [Compound 21, N,N’-bis[2-(1-adamantyl)ethyl]-4,13-diaza-18-crown-6] | 25 to 50%
